Patent publication US5574071A, “Method of lowering cholesterol” (Hoffmann-La Roche Inc., priority 1993, dated 1996)
Counter-ions that a name gives are not always drawn.

What was measured:
[1] = tested on: LDL receptor in human hepatoma cells (Hep G2); experiment: Inhibition of cholesterol synthesis in human hepatoma cells (Hep G2), determined by stimulation of LDL receptors (ELISA, C7-LDL antibody); format: cell-based; conditions: HepG2, Table B, versus untreated cells, read-out: EC50 (concentration which increases the activity of the LDL receptor by 50% in comparison to the control)
Experimental: Thus, the inhibition of cholesterol :synthesis in human hepatoma cells (Hep G2) was determined on the basis of the stimulation of the LDL receptors induced in parallel. The cells were placed in microtitre plates and treated with the cholesterol synthesis inhibitor. The concentration of the LDL receptor is measured by ELISA methodology, with the C7-LDL antibody being used as the primary antibody. The EC50 values in nM/I in Table B hereinafter correspond to the concentration of cholesterol synthesis inhibitor which increases the activity of the receptor by 50% in comparison to the control, that is, untreated cells.

[2] = Toxicity (LD50 per os in the mouse); conditions: in vivo, po

Compound | EC50 [1] [µM] | LD50 [2] [mg/kg]
C=CCN(C)CC=CCOc1ccc(C(=O)c2ccc(Br)cc2)cc1 [Compound 1, trans-4-[[4-(allymethylamino)-2-butenyl]oxy]-4'-bromo-benzophenone] | 0.05 | –
C=CCN(C)Cc1ccc(-c2ccc(C(=O)c3ccc(C#N)cc3)cc2)cc1 [Compound 2, p-[[4'-[(allylmethylamino)methyl]-4-biphenylyl]carbonyl]-benzonitrile] | 0.043 | –
C=CCN(C)CC=CCOc1ccc(C(=O)c2ccc([N+](=O)[O-])cc2)cc1 [Compound 3, trans-4-[[4-(allylmethylamino)-2-butenyl]oxy]-4'-nitro-benzophenone] | 0.063 | –
CN(C)Cc1ccc(-c2ccc(C(=O)c3ccc([N+](=O)[O-])cc3Cl)cc2)cc1 [Compound 4, 2-chloro-4-nitrophenyl 4'-[(dimethylamino)methyl]-4-biphenylyl ketone] | 0.153 | –
C=CCN(C)CC=CCOc1ccc(C(=O)c2ccc(Cl)cc2Cl)cc1 [Compound 7, trans-4-[[4-(allymethylamino)-2-butenyl]oxy]-2',4'-dichloro-benzophenone] | 0.082 | –
CC(C)=CCCC(=O)c1ccc(-c2ccc(CN(C)C)cc2)cc1 [Compound 20] | – | 1250 to 2500
C=CCN(C)CCCCCCOc1ccc(C(=O)c2ccc(Br)cc2)cc1 [Example 9a, [4-[6-(allyl-methyl-amino)-hexyloxy]-phenyl]-(4-bromo-phenyl)-methanone hydrobromide] | 0.051 | –
C=CCN(C)CCCCCCOc1ccc(C(=O)c2ccc(Br)cc2)cc1F [Example 9c, [4-[6-(ally-methyl-amino)-hexyloxy]-3-fluoro-phenyl]-(4-bromo-phenyl)-methanone] | 0.203 | –
C=CCN(C)CCCCCCOc1ccc(C(=O)c2ccc(Br)cc2)c(F)c1 [Example 9d, [4-[6-(allyl-methyl-amino)-hexyloxy]-2-fluoro-phenyl]-(4-bromo-phenyl)-methanone] | 0.057 | –
C=CCN(C)C/C=C/COc1ccc(C(=O)c2ccc(Br)cc2)cc1F [Example 9f, (E)-[4-[4-(allyl-methyl-amino)-but-2-enyloxy]-3-fluoro-phenyl]-(4-bromo-phenyl)-methanone] | 0.01 | –
C=CCN(C)C/C=C/COc1ccc(C(=O)CCCC(C)C)cc1 [Example 9g, (E)-I -[4-[4-(allyl-methyl-amino)-but-2-enyloxy]-phenyl]-5-methyl-hexan-l-one] | 0.177 | –
C=CCN(C)C/C=C/COc1ccc(C(=O)c2ccc(I)cc2)cc1 [Example 9h, (E)-[4-[4-(allyl-methyl-amino)-but-2-enyloxy]-phenyl]-(4-iodo-phenyl)-methanone] | 0.094 | –
C=CCN(C)C/C=C/COc1ccc(C(=O)c2ccc(C#N)cc2)cc1F [Example 9j, (E)-[4-[4-(allyl-methyl-amino)-but-2-enyloxy]-3-fluoro-benzoyl]-benzonitrile] | 0.019 | –
C=CCN(C)C/C=C/COc1ccc(C(=O)c2c(F)cccc2F)cc1F [Example 9l, (E)-[4-[4-(allyl-methyl-amino)-but-2-enyloxy]-3-fluoro-phenyl]-(2,6-difluoro-phenyl)-methanone] | 0.22 | –
C=CCN(C)C/C=C/COc1ccc(C(=O)CCC=C(C)C)cc1 [Example 9m, (E)-I -[4-[4-(allyl-methyl-amino)-but-2-enyloxy]phenyl]-5-methyl-hex-4-en-l-one] | 0.034 | –
C=CCN(C)C/C=C/COc1ccc(C(=O)c2ccc(Br)cc2)c(F)c1 [Example 9n, (E)-[4-[4-(allyl-methyl-amino)-but-2-enyloxy]-2-fluoro-phenyl]-(4-bromo-phenyl)-methanone] | 0.133 | –
C=CCN(C)C/C=C/COc1ccc(CC(=O)CCC=C(C)C)cc1F [Example 9p, (E)-1-[4-[4-(allyl-methylamino)-but-2-enyloxy]-3-fluoro-phenyl]-6-methyl-hept-5-en-2-one] | 0.098 | –
C=CCN(C)C/C=C/COc1ccc(CC(=O)c2ccc(Br)cc2)cc1 [Example 9r, (E)-2-[4-[4-(allyl-methyl-amino)-but-2-enyloxy)-phenyl]-1-(4-bromo-phenyl)-ethanone] | 0.222 | –
CCN(C)C/C=C/COc1ccc(C(=O)c2ccc(Br)cc2)cc1 [Example 9s, (E)-(4-bromo-phenyl)-[4-[4-(ethyl-methyl-amino)-but-2-enyloxy]-phenyl]-methanone hydrobromide] | 0.122 | –
